# Earlier results in patent US11717549B2, “Steviol glycoside solubility enhancers” (CARGILL, INCORPORATED, priority 2017, dated 2023).
# Details: temperature 0 ° C.; cited from earlier work
row,Molecule,solubility (ppm)
1,O=C(O)C(=O)c1ccccc1 [alpha-oxobenzeneacetic acid],4.79E+05 ppm

# Same assay, conditions: temperature 9 ° C.; cited from earlier work
row,Molecule,solubility (ppm)
1,"O=C(O)[C@]1(O)C[C@@H](O)[C@@H](O)[C@H](O)C1 [quinic acid (coffee beans), quinic acid]",2.25E+05 ppm

# Same assay, conditions: temperature 14 ° C.; cited from earlier work
row,Molecule,solubility (ppm)
1,O=C(O)c1cccc(Cl)c1C(=O)O [3-chlorophthalic acid],2.08E+04 ppm
2,"O=C(O)c1ccc(O)c(O)c1 [3,4-dihydroxybenzoic acid]",1.79E+04 ppm

# Same assay, conditions: temperature 14.9 ° C.; cited from earlier work
row,Molecule,solubility (ppm)
1,Nc1cccc(C(=O)O)c1 [aniline-3-carboxylic acid],5.87E+03 ppm

# Same assay, conditions: temperature 15 ° C.; cited from earlier work
row,Molecule,solubility (ppm)
1,O=C(O)C(=O)c1ccccc1C(=O)O [phthalonic acid],3.49E+05 ppm
2,"O=C(O)c1c(Br)cc(Br)cc1Br [2,4,6-tribromobenzoic acid]",3.49E+03 ppm
3,O=C(O)c1cc2c(cc1C(=O)O)OCO2 [hydrastic acid],5.96E+03 ppm
4,"O=C(O)c1ccnc(C(=O)O)c1C(=O)O [2,3,4-pyridinetricarboxylic acid]",1.19E+04 ppm

# Same assay, conditions: temperature 16 ° C.; cited from earlier work
row,Molecule,solubility (ppm)
1,CC(C)(C(=O)O)C(C)(CC(=O)O)C(=O)O [L-camphoronic acid],9.99E+04 ppm
2,O=C(O)c1cc(C(=O)O)c(C(=O)O)cc1C(=O)O [pyromellitic acid],1.40E+04 ppm
3,"O=C(O)c1cc(C(=O)O)cc(C(=O)O)c1 [1,3,5-benzenetricarboxylic acid]",3.79E+03 ppm

# Same assay, conditions: temperature 18 ° C.; cited from earlier work
row,Molecule,solubility (ppm)
1,"O=C1c2cccc(S(=O)(=O)O)c2C(=O)c2cccc(S(=O)(=O)O)c21 [1,5-anthraquinone disulfonic acid]",2.86E+05 ppm
2,"O=C1c2cccc(S(=O)O)c2C(=O)c2c1cccc2S(=O)O [1,8-anthraquinonedisulfinic acid]",2.86E+05 ppm
3,"O=C1c2cccc(S(=O)(=O)O)c2C(=O)c2cccc(Cl)c21 [1,5-chloroanthraquinone sulfonic acid]",2.50E+05 ppm
4,"O=C1c2cc(S(=O)(=O)O)ccc2C(=O)c2c(Cl)cccc21 [1,6-chloroanthraquinone sulfonic acid]",1.67E+05 ppm
5,"1,7-chloroanthraquinone sulfonic acid",1.67E+05 ppm
6,"O=C1c2cc(S(=O)(=O)O)ccc2C(=O)c2c1cccc2S(=O)(=O)O [1,6-anthraquinone disulfonic acid]",3.33E+05 ppm

# Same assay, conditions: temperature 19 ° C.; cited from earlier work
row,Molecule,solubility (ppm)
1,"O=C(O)c1cccc(C(=O)O)c1C(=O)O [1,2,3-benzenetricarboxylic acid]",2.97E+04 ppm

# Same assay, conditions: temperature 20 ° C.; cited from earlier work
row,Molecule,solubility (ppm)
1,C=CCC1(CC)C(=O)NC(=O)N(CCCC)C1=O (stereo not drawn) [5-allyl-5-ethylbutylbarbituric acid],3.99E+03 ppm
2,Cc1ccc([N+](=O)[O-])c(C(=O)O)c1 [6-nitro-3-methylbenzoic acid],4.68E+03 ppm
3,Cc1cc(S(=O)(=O)O)ccc1N [4-amino-3-methylbenzene sulfonic acid],4.98E+03 ppm
4,Nc1ccccc1C(=O)O [aniline-2-carboxylic acid],3.48E+03 ppm
5,O=C(O)CCc1ccccc1 [benzenepropanoic acid],5.87E+03 ppm

# Same assay, conditions: temperature 21 ° C.; cited from earlier work
row,Molecule,solubility (ppm)
1,"CCNC(=O)COC(=O)c1ccccc1OC(C)=O [benzoic acid, 2-(acetyloxy)-, 2-(ethylamino)-2-oxoethyl ester]",5.49E+03 ppm
2,"CN(CCO)C(=O)COC(=O)c1ccccc1O [benzoic acid, 2-hydroxy-, 2-[(2-hydroxyethyl)methylamino]-2-oxoethyl ester]",6.26E+03 ppm
3,"CC(=O)Oc1ccccc1C(=O)OC[S+](C)[O-] (stereo not drawn) [2-(acetoxy)-benzoic acid, (methylsulfinyl)methyl ester]",4.21E+03 ppm

# Same assay, conditions: temperature 25 ° C.; cited from earlier work
row,Molecule,solubility (ppm)
1,O=C(O)c1cccc([N+](=O)[O-])c1 [m-nitrobenzoic acid],3.53E+03 ppm
2,CC(C)(C)C(CCC(=O)O)CC(=O)O (stereo not drawn) [3-tert-butyl adipic acid],6.14E+03 ppm
3,CCC(C)=CCCC(=O)O [5-methyl-4-heptenoic acid],4.64E+03 ppm
4,CCCC1(CC)C(=O)NC(=O)NC1=O [5-ethyl-5-n-propylbarbituric acid],5.66E+03 ppm
5,O=C(O)c1ccccc1[N+](=O)[O-] [o-nitrobenzoic acid],7.44E+03 ppm
6,"O=C(O)c1cc(=O)c(O)c(C(=O)O)o1 [3-hydroxy-4-oxo-4H-pyran-2,6-dicarboxylic acid]",8.33E+03 ppm
7,CCCCC=C(C)C(=O)O [2-methyl-2-heptenoic acid],4.64E+03 ppm
8,CC(C)CCCC(=O)O [5-methylhexanoic acid],3.93E+03 ppm
9,CC(=O)O[C@@H](C(=O)O)c1ccccc1 [acetyl-r-mandelic acid],1.11E+04 ppm
10,O=C(O)c1cccc([N+](=O)[O-])c1C(=O)O [3-nitrophthalic acid],1.97E+04 ppm
11,"O=C(O)c1ccc(O)cc1O [2,4-dihydroxybenzoic acid]",5.96E+03 ppm
12,CC(C)CC=CC(=O)O [5-methyl-2-hexenoic acid],5.37E+03 ppm
13,"O=C(O)c1ccc([N+](=O)[O-])cc1[N+](=O)[O-] [2,4-dinitrobenzoic acid]",1.79E+04 ppm
14,CCCC(C)=CCC(=O)O [4-methyl-3-heptenoic acid],4.64E+03 ppm
15,"O=C(O)c1cc(=O)cc(C(=O)O)o1 [4-oxo-4H-pyran-2,6-dicarboxylic acid]",1.41E+04 ppm
16,O=C(O)c1cc(Cl)ccc1[N+](=O)[O-] [5-chloro-2-nitrobenzoic acid],9.58E+03 ppm
17,"O=C(O)c1cccnc1C(=O)O [2,3-pyridinedicarboxylic acid]",1.09E+04 ppm
18,CCCC=CC(C)C(=O)O (stereo not drawn) [2-methyl-3-heptenoic acid],4.64E+03 ppm
19,CCCCC(C)=CC(=O)O [3-methyl-2-heptenoic acid],4.64E+03 ppm
20,"CC1(C)[C@@H](C(=O)O)CC[C@@]1(C)C(=O)O (relative stereo) [cis-1,2,2-trimethyl-1,3-cyclopentanedicarboxylic acid, (1R)]",7.54E+03 ppm
21,Nc1ccc(C(=O)O)cc1 [aniline-4-carboxylic acid],4.98E+03 ppm
22,CCCC(C)C=CC(=O)O (stereo not drawn) [4-methyl-2-heptenoic acid],4.64E+03 ppm
23,CC(CCCCCC(=O)O)CC(=O)O (stereo not drawn) [3-methylnonanedioic acid],5.53E+03 ppm

row,Molecule,solubility (ppm)
1,"O=C(O)C(O)c1ccccc1 (stereo not drawn) [mandelic acid (almonds), mandelic acid]",1.53E+05 ppm
2,"COc1c(Cl)ccc(Cl)c1C(=O)O [3,6-dichloro-2-methoxybenzoic acid]",4.48E+03 ppm
3,CCC(C=CC(=O)O)CC [4-ethyl-2-hexenoic acid],6.06E+03 ppm
4,"O=C1NC(=O)C2(CCC2)C(=O)N1 [5,5-trimethylenebarbituric acid]",3.71E+03 ppm
5,O=C(O)C(=O)Nc1ccccc1 [oxanilic acid],8.17E+03 ppm
6,CCCC/C=C/C(=O)O [trans-2-heptenoic acid],5.37E+03 ppm
7,O=C(O)c1ccccc1C(F)(F)F [2-(trifluoromethyl)benzoic acid],4.78E+03 ppm
8,CCCC(=CC(=O)O)CC [3-ethyl-2-hexenoic acid],6.06E+03 ppm
9,O=C(O)c1ccc(O)cc1 [p-hydroxybenzoic acid],6.36E+03 ppm
10,CCC=C(C)CCC(=O)O [4-methyl-4-heptenoic acid],4.64E+03 ppm
11,CCCCCCCCC(C(=O)O)C(=O)O [octylpropanedioic acid],5.53E+03 ppm
12,CCC(C)CC=CC(=O)O (stereo not drawn) [5-ethyl-2-hexenoic acid],6.06E+03 ppm
13,CCC(C)C=CCC(=O)O (stereo not drawn) [5-methyl-3-heptenoic acid],4.64E+03 ppm
14,CCC=CCC(C)C(=O)O (stereo not drawn) [2-methyl-4-heptenoic acid],4.64E+03 ppm
15,CCC(C)CCC(=O)O (racemic) [4-methylhexanoic acid],3.56E+03 ppm
16,CCCC(C)CC(=O)O (stereo not drawn) [3-methylhexanoic acid],4.80E+03 ppm
17,CCCC=C(CC)C(=O)O [2-ethyl-2-hexenoic acid],6.06E+03 ppm
18,CCC(C)CC=CC(=O)O (stereo not drawn) [5-methyl-2-heptenoic acid],4.64E+03 ppm
19,"CC(C)(CCCC(C)(C)C(=O)O)C(=O)O [a,a,a′,a′-tetramethylheptanedioic acid]",7.55E+03 ppm
20,CC(C)CC=CCC(=O)O [6-methyl-3-heptenoic acid],4.64E+03 ppm
21,COc1ccccc1C(=O)O [2-methoxybenzoic acid],4.18E+03 ppm
22,C=CCCCCC(=O)O [6-heptenoic acid],5.55E+03 ppm

# Same assay, conditions: temperature 37 ° C.; cited from earlier work
row,Molecule,solubility (ppm)
1,CC(=O)N(CC(C)C(=O)O)c1c(I)cc(I)c(N)c1I (stereo not drawn) [iocetamic acid],5.26E+03 ppm

# Same assay, conditions: temperature 100 ° C.; cited from earlier work
row,Molecule,solubility (ppm)
1,Cc1cccc(C(=O)O)c1O [2-hydroxy-3-methylbenzoic acid],1.15E+04 ppm
2,Cc1ccc(C(=O)O)c(O)c1 [2-hydroxy-4-methylbenzoic acid],1.00E+04 ppm
3,O=C(O)c1cccc(C(=O)O)c1O [2-hydroxyisophthalic acid],2.57E+04 ppm
4,O=C(O)c1cc(=O)c2ccccc2[nH]1 [4-hydroxy-2-quinolinecarboxylic acid],8.84E+03 ppm

# Same assay, conditions: temperature not given; cited from earlier work
row,Molecule,solubility (ppm)
1,"O=C(O)c1c(Cl)cccc1Cl [2,6-dichlorobenzoic acid]",1.39E+04 ppm
2,"O=C(O)c1c(O)cccc1O [2,6-dihydroxybenzoic acid]",9.47E+03 ppm
3,Nc1ccc2cc(S(=O)(=O)O)cc(O)c2c1 [6-amino-4-hydroxy-2-naphthalenesulfonic acid],4.48E+03 ppm
4,CCNCCOC(=O)c1ccc(N)cc1 [4-aminobenzoic aciD-2-(ethyl-amino)ethyl ester],5.59E+03 ppm
